What was measured:
Leukemia Cell Line SR = experiment: cells; assay type: cell-based; conditions: Homo sapiens; SR; single dose, 10 uM compound concentration; read-out: inhibition of proliferation
Ovarian Cell Line IGROV1 = assay type: cell-based; conditions: Homo sapiens, IGROV-1; IGROV1; single dose, 10 uM compound concentration; read-out: inhibition of proliferation
Leukemia Cell Line K-562 = assay type: cell-based; conditions: Homo sapiens, K562; K-562; single dose, 10 uM compound concentration; read-out: inhibition of proliferation
[1] = system: Breast Cancer Cell Line MDA-MB-468; experiment: cells; conditions: Homo sapiens, MDA-MB-468, read-out: inhibition of proliferation
[2] = system: Ovarian Cell Line NCI/ADR-RES; experiment: cells; assay type: cell-based; conditions: Homo sapiens, single dose, 10 uM compound concentration, read-out: inhibition of proliferation
[3] = system: Breast Cancer Cell Line BT-549; experiment: cells; assay type: cell-based; conditions: Homo sapiens; BT-549; single dose, 10 uM compound concentration; read-out: inhibition of proliferation
PI3Kδ = PI3Kδ (Homo sapiens, UniProt O00329); experiment: PI3Kδ kinase assay (HTRF); assay type: biochemical; conditions: symbols ++ / +; read-out: PI3Kδ Inhibition Activity (IC50 class)
Chain of PI3Kδ (O00329 whole entry): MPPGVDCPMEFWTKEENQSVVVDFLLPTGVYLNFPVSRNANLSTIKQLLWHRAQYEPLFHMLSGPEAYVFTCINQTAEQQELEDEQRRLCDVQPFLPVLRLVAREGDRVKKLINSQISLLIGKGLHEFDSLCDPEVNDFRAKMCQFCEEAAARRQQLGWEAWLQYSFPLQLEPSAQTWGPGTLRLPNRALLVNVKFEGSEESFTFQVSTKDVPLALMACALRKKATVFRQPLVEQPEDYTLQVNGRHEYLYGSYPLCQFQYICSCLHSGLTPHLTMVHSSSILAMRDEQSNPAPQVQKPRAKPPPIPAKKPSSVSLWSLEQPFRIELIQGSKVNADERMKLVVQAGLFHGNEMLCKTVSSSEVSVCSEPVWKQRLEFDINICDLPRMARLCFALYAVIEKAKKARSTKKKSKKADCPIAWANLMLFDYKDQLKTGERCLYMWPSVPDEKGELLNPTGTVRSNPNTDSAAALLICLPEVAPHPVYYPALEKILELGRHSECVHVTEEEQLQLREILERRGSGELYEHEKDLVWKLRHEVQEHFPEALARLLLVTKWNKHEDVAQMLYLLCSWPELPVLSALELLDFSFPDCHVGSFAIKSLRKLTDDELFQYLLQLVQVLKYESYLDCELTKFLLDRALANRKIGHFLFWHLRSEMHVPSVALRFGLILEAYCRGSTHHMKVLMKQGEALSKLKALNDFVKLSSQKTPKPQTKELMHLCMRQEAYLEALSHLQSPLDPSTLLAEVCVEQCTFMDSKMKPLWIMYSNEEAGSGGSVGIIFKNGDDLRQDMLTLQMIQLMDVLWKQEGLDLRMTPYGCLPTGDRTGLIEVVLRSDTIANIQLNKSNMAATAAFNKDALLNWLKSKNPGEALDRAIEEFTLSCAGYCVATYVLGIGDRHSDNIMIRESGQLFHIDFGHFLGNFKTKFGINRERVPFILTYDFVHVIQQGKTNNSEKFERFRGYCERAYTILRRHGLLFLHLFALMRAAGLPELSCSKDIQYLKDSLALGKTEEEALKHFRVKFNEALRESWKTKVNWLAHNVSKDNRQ
Chain of PI3Kδ (P27986 whole entry partner): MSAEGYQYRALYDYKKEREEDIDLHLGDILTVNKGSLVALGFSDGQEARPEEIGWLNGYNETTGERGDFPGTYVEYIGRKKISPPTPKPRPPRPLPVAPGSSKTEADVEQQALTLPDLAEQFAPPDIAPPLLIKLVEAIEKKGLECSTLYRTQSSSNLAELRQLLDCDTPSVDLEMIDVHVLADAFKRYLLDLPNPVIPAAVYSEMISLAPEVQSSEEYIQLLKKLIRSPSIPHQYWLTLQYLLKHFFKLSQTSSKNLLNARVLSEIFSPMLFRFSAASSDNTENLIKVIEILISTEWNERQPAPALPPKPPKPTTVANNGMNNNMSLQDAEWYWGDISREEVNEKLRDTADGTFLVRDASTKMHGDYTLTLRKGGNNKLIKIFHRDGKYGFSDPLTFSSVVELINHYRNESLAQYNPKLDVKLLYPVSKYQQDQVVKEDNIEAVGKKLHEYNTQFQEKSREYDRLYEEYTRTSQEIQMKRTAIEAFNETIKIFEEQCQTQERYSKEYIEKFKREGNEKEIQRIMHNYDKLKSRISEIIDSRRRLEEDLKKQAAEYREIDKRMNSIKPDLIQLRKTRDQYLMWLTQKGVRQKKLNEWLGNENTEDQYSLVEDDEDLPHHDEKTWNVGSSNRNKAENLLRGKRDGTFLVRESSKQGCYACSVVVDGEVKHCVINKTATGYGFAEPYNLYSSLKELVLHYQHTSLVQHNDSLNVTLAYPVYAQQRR
Experimental: The PIP3 product is detected by displacement of biotin-PIP3 from an energy transfer complex consisting of Europium labeled anti-GST monoclonal antibody, a GST-tagged pleckstrin homology (PH) domain, biotinylated PIP3 and Streptavidin-Allophycocyanin (APC). […] The PIP3 product formed by PI 3-Kinase(h) activity displaces biotin-PIP3 from the complex resulting in a loss of energy transfer, and thus, a decrease in signal.
First, the kinase reaction with PIP2 substrate is carried out in the presence of ATP, and the reaction is quenched with stop Solution, and then, finally detect by adding Detection Mixture followed by incubation.
HEPES 50 mM (pH7.0), NaN3 0.02%, BSA 0.01%, Orthovanadate 0.1 mM, 1% DMSO.
Detection buffer: HEPES 10 mM (pH7.0), BSA 0.02%, KF 0.16 M, EDTA 4 mM.
10 μM PIP2 substrate (PI(4,5)P2)
10 μM ATP under standard conditions
1. Prepare substrate in freshly prepared Reaction Buffer.
2. Deliver kinase into the substrate solution and gently mix.
3. Deliver compounds in 100% DMSO into the kinase reaction mixture by Acoustic technology (Echo550; nanoliter range), incubate for 10 min at room temperature.
4. Deliver ATP into the reaction mixture to initiate the reaction.
5. Incubate for 30 min at 30° C.
6. Quench the reaction with Stop Solution.
7. Add Detection Mixture, and incubate for overnight.
The emission ratio is converted into μM PIP3 production based on PIP3 standard curves.
The nonlinear regression to obtain the standard curve and IC50 values are performed using Graphpad Prism software.

[4] = system: Leukemia Cell Line MOLT-4; assay type: cell-based; conditions: Homo sapiens; MOLT-4; single dose, 10 uM compound concentration; read-out: inhibition of proliferation
[5] = system: Leukemia Cell Line HL-60(TB); assay type: cell-based; conditions: Homo sapiens; HL-60(TB); single dose, 10 uM compound concentration; read-out: inhibition of proliferation
[6] = system: Leukemia Cell Line CCRF-CEM; experiment: cells; assay type: cell-based; conditions: Homo sapiens, single dose, 10 uM compound concentration, read-out: inhibition of proliferation
[7] = system: Ovarian Cell Line OVCAR-3; experiment: cells; conditions: Homo sapiens, OVCAR-3, read-out: inhibition of proliferation

In the case of `CC[C@H](Nc1nc(N)nc(C)c1C#N)c1nc2cccc(CN(C)c3ncc(C(=O)NO)cn3)c2c(=O)n1-c1ccccc1` [LII, (S)-2-(((2-(1-((2-amino-5-cyano-6-methylpyrimidin-4-yl)amino)propyl)-4-oxo-3-phenyl-3,4-dihydroquinazolin-5-yl)methyl)(methyl)amino)-N-hydroxypyrimidine-5-carboxamide], the inhibition at 10 µM (Leukemia Cell Line SR) is reported as > 50%, the inhibition at 10 µM (Ovarian Cell Line IGROV1) is reported as > 50% and the inhibition at 10 µM (Leukemia Cell Line K-562) is reported as > 50%. For the same compound, the inhibition at 10 µM [1] was > 50%, the inhibition at 10 µM [2] was 25 to 50% and the inhibition at 10 µM [3] was > 50%. For the same compound, the IC50 (PI3Kδ) was < 100 nM, the inhibition at 10 µM [4] was > 50% and the inhibition at 10 µM [5] was > 50%. The inhibition at 10 µM [6] was > 50% and the inhibition at 10 µM [7] was > 50%.
